The target in experiment [1] is Endothelin A receptor (Oryctolagus cuniculus). As to the kind of experiment: Antagonistic activity against endothelin A receptor in rabbit renal artery vascular smooth muscle cells.
The target is the same in experiment [2]. Kind of experiment: Compound was tested for its ability to inhibit Endothelin A receptor induced arachidonic acid release(AARA) in rabbit renal artery vascular smooth muscles.
Test in experiment [3]: as above

A value given as a limit tells only on which side of the number the result lay.

In experiment [1], `O=C(OCc1ccc2c(c1)OCO2)C(c1ccc2c(c1)OCO2)c1c2ccccc2nc2ccccc12` (stereo unspecified) [Acridin-9-yl-benzo[1,3]dioxol-5-yl-acetic acid benzo[1,3]dioxol-5-ylmethyl ester] yielded an IC50 of 8.7 µM. Regarding `O=C(OCc1ccccc1)C(c1ccc2c(c1)OCO2)c1c2ccccc2nc2ccccc12` (stereo unspecified) [Acridin-9-yl-benzo[1,3]dioxol-5-yl-acetic acid benzyl ester], the IC50 in experiment [1] came out at 7.5 µM. With `Cc1cc(C(C(N)=O)c2ccc3c(c2)OCO3)c2ccccc2n1` (stereo unspecified) [2-Benzo[1,3]dioxol-5-yl-2-(2-methyl-quinolin-4-yl)-acetamide], the IC50 in experiment [2] was determined as 13 µM. In turn, `OCC(c1ccc2c(c1)OCO2)c1c2ccccc2nc2ccccc12` (stereo unspecified) [2-Acridin-9-yl-2-benzo[1,3]dioxol-5-yl-ethanol] had an IC50 in experiment [3] of 10 µM. `COC(=O)C(Cc1c2ccccc2cc2ccccc12)c1ccc2c(c1)OCO2` (stereo unspecified) [3-Anthracen-9-yl-2-benzo[1,3]dioxol-5-yl-propionic acid methyl ester] had an IC50 in experiment [1] above 25 µM. As for `COC(=O)C(c1ccc2c(c1)OCO2)c1cc(C)nc2ccccc12` (stereo unspecified) [Benzo[1,3]dioxol-5-yl-(2-methyl-quinolin-4-yl)-acetic acid methyl ester], the IC50 in experiment [2] was 2.8 µM.

As a reminder, the IC50 is the concentration needed to halve the response being measured.
